The source made the active and inactive calls. The rule behind the calls is not given here.
How the values were obtained:
[1] = tested on: Musca domestica; experiment: Insecticidal activity against Musca domestica in presence of piperonyl butoxide applied topically; format: functional, organism-based
[2] = tested on: Tribolium castaneum; experiment: Insecticidal activity against Tribolium castaneum first instar larvae; format: functional, organism-based
[3] = tested on: Mus musculus; experiment: Toxicity in ip dosed mouse; format: organism-based; settings: in vivo
[4] = molecular target: Ryanodine receptor 1 (Oryctolagus cuniculus) (UniProt P11716); experiment: Displacement of [3H]ryanodine from Ca2+- ryanodine 1 receptor complex in rabbit skeletal muscle
Sequence of Ryanodine receptor 1 (Oryctolagus cuniculus) (P11716 whole entry): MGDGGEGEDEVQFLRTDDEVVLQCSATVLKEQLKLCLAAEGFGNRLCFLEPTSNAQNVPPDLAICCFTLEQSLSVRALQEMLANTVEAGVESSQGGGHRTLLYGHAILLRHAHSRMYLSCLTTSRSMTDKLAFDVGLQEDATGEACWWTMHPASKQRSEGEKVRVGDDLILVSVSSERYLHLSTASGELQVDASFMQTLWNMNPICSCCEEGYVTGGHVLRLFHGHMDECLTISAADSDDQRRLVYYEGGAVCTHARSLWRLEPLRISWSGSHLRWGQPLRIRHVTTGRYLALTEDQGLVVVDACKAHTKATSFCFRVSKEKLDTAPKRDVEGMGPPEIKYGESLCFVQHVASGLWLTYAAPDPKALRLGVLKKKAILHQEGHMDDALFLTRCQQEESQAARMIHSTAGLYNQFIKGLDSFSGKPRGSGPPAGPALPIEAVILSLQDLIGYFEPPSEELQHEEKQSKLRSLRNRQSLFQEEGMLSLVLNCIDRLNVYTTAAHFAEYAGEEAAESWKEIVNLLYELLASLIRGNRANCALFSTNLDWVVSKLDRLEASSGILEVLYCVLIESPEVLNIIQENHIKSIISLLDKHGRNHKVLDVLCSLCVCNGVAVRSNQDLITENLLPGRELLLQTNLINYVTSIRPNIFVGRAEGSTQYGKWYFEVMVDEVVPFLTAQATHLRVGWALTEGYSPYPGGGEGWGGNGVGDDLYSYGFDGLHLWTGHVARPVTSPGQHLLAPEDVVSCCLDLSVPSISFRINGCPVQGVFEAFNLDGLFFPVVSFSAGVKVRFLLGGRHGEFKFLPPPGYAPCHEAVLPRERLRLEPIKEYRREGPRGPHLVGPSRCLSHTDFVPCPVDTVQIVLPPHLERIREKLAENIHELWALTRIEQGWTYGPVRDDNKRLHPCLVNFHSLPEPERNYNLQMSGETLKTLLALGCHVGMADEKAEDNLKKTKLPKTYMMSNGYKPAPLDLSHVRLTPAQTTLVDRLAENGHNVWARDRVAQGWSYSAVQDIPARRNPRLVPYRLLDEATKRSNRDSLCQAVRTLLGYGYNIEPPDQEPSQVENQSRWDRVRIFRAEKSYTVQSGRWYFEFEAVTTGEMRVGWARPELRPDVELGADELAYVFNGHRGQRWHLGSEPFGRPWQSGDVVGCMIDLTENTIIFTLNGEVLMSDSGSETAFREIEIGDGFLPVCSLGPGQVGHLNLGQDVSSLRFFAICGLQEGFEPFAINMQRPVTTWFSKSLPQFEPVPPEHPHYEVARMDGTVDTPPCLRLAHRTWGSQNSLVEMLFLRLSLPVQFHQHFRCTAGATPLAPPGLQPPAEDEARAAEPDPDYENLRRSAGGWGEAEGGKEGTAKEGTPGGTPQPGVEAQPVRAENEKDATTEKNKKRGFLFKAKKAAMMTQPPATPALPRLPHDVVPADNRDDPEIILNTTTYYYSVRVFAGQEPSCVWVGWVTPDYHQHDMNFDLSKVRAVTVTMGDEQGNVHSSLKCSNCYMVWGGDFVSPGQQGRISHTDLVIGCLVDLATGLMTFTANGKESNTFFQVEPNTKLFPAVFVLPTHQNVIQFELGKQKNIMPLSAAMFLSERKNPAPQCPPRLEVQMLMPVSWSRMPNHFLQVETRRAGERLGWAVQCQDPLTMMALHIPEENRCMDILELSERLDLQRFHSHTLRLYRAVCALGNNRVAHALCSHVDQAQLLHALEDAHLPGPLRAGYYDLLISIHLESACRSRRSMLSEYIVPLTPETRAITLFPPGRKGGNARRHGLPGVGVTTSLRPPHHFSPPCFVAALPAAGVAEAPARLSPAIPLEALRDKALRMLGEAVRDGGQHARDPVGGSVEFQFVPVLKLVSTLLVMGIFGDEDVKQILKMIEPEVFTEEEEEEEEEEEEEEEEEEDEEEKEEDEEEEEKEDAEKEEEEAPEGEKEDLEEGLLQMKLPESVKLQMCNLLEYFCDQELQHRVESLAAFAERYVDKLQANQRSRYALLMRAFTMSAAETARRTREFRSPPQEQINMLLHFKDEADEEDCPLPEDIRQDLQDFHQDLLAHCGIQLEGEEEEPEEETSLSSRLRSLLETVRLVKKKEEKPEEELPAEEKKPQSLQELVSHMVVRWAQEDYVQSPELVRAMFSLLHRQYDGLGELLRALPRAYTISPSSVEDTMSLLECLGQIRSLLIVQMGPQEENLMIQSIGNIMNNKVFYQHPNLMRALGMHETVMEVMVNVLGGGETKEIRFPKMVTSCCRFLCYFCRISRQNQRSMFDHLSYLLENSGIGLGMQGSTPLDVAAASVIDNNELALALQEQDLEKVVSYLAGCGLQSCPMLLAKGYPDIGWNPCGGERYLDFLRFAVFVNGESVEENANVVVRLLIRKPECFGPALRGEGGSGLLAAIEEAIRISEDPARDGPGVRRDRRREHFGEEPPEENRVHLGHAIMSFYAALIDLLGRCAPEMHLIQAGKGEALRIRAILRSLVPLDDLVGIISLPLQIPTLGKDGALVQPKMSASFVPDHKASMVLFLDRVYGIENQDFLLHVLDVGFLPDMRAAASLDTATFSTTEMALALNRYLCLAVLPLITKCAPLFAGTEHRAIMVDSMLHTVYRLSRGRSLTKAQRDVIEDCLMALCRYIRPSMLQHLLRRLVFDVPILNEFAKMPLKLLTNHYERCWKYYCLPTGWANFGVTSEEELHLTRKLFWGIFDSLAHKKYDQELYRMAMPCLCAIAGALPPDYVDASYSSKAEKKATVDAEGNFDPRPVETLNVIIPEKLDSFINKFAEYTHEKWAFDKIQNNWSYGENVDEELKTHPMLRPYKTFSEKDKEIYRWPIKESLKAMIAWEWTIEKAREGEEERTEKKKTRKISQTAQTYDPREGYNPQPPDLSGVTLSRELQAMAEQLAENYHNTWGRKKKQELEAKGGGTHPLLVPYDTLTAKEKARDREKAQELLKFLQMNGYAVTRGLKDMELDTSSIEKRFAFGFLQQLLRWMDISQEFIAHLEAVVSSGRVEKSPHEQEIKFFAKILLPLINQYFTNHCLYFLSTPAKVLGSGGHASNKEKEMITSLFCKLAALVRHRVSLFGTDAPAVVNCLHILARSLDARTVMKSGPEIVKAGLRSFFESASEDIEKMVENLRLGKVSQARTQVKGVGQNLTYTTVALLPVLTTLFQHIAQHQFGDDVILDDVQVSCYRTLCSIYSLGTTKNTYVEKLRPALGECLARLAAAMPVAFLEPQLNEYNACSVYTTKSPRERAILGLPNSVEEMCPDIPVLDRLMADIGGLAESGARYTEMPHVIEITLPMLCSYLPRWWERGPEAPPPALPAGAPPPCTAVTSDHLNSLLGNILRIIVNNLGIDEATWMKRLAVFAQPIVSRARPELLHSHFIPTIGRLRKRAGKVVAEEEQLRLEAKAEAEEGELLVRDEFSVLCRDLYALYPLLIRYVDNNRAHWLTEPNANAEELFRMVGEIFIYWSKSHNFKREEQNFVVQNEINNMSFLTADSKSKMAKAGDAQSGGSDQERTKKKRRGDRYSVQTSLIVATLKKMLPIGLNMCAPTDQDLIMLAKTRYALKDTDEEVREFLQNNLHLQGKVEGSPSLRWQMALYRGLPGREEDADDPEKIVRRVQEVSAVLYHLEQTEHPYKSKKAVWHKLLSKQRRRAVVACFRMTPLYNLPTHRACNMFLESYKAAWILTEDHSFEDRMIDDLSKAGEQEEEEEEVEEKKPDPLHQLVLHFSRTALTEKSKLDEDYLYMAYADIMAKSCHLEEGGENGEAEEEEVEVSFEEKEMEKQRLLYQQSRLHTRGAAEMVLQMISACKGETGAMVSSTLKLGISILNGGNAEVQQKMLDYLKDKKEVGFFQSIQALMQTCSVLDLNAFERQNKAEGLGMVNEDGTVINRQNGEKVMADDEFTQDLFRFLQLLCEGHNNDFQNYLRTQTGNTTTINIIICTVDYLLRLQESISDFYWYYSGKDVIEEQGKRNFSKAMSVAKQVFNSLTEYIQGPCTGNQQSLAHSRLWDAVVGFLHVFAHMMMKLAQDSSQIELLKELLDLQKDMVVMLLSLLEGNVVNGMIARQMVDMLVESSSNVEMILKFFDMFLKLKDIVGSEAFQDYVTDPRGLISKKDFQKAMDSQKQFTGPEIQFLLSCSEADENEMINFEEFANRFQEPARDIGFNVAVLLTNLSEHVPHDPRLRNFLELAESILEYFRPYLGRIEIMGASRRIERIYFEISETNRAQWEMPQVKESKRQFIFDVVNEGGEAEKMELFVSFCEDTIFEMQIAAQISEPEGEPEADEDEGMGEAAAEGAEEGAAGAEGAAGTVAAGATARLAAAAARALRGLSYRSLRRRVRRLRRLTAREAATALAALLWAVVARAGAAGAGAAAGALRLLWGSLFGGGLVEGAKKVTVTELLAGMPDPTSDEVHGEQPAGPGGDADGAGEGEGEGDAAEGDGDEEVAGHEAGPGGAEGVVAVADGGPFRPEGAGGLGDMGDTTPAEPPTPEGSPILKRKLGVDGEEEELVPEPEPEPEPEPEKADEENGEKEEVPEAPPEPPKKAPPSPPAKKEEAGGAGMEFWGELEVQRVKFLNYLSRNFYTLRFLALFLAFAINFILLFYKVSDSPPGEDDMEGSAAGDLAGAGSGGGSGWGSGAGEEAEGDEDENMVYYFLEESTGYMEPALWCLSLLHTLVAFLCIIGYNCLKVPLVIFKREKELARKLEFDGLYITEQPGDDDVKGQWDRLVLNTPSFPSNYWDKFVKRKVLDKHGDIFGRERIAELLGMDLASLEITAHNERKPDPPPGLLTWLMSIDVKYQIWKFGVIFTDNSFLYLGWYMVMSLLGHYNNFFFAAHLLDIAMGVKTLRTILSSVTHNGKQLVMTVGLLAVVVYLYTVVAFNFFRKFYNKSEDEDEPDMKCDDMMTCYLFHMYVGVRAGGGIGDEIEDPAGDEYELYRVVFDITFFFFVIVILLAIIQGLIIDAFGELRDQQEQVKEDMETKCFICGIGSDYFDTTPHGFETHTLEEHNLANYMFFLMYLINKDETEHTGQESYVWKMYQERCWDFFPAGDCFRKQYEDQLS

| Activity [4] | SMILES | Activity [1] | Activity [2] | Activity [3] |
| --- | --- | --- | --- | --- |
| – | CC(C)[C@@]1(O)[C@@H](OC(=O)c2cc[nH]c2)[C@@]2(O)[C@]3(C)C[C@@]4(O)O[C@@]5([C@H](O)[C@@H](C)CC[C@]35O)[C@@]2(O)[C@@]41C | Active | Active | – |
| – | CC(C)[C@@]1(O)[C@@H](OC(=O)c2ccc[nH]2)[C@@]2(O)[C@@]3(C)C[C@]4(O)O[C@@]5([C@H](O)[C@@H](C)CC[C@]35O)[C@@]2(O)[C@@]14C [RYANODINE] | – | – | Active |
| inactive | CC(C)[C@@]1(O)[C@@H](OC(=O)c2cccnc2)[C@@]2(O)[C@]3(C)C[C@@]4(O)O[C@@]5([C@H](O)[C@@H](C)CC[C@]35O)[C@@]2(O)[C@@]41C | inactive | inactive | Not Active |

From ChEMBL document CHEMBL1158979, “Ryanodyl 3-(pyridine-3-carboxylate): a novel ryanoid from Ryania insecticide” (J Nat Prod, 1991)
